Assay results from PubChem BioAssay AID179 (DTP/NCI, 2004).
Several values for one entry are separate records, joined by “and”; a condition that tells them apart may be missing. Identical values can stand only once. Activity calls are given as the source filed them.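 How the source made its calls: active means compounds giving half or more protection of infected cells from virus-caused growth loss, again on retest; inactive means the rest.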

Tested on: CEM cells HIV-1 protection, formazan growth assay
Assay: NCI AIDS Antiviral Assay
Conditions: for IC50: measured here: growth of uninfected CEM cells
Summary of the method: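 Soluble formazan readout of cell growth; CEM cells ± HIV-1; 5 drug concs. ≥50% protection → retest; ≥50% again = moderately active; reproducible 100% = confirmed active.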

SMILES | EC50 | IC50 | outcome
COc1ccc(C(c2ccc(OC)cc2)N2C(=O)CCC2C(=O)O)cc1 (configuration not stated) | > 200 µM | > 200 µM | –
COc1ccc(NC2Oc3cc4c(cc3C(c3cccc(OC)c3OC)C2C)OCO4)cc1 (configuration not stated) | > 200 µM | 1.95 µM | –
Nc1[nH]c(=S)[nH]c(=O)c1N=O | > 200 µM | > 200 µM | –
C=CCOC1=C(OC(C)=O)C(C2COC(C)(C)O2)OC1=O (configuration not stated) | > 200 µM | 16.2 µM | –
Nc1cc(N)c(N)cc1N | > 200 µM | 38 µM | –
Cc1cc(=O)[nH]c(NNC(C#N)c2ccco2)n1 (configuration not stated) | > 380 µM | > 380 µM | –
S=C1NC(=NC2CCCCC2)C2(CCN(CCc3ccccc3)CC2)N1c1ccccc1 | > 100 µM | 53.7 µM | –
COc1nc(NC2OC(COC(C)=O)C(OC(C)=O)C(OC(C)=O)C2OC(C)=O)c2c(n1)OCC2=O (configuration not stated) | – | – | inactive
CCCn1c(SCC)c2ccccc2c1-c1nc(F)nc(F)n1 | > 8.13 µM | > 8.13 µM | –
Cn1c(=O)c(=O)n(C)c2nc3ccccc3nc21 | > 4.27 µM | > 4.27 µM | –
O=C(c1ccccc1)n1c2ccc(Br)cc2c2nc3ccccc3nc21 | > 50.1 µM | > 50.1 µM | –
O=C(CC/C=C(/CS(=O)(=O)c1ccccc1)S(=O)(=O)c1ccccc1)c1ccccc1 | > 100 µM | > 100 µM | –
CN(C)CN1C(=O)S/C(=C2\C(=O)N(CN(C)C)c3ccccc32)C1=O | > 200 µM | 38 µM | –
COc1nc(=O)n(C2CC(F)C(CO)O2)cc1C (configuration not stated) | 79.4 µM | > 200 µM | –
CCN(CC)CCN.[O-][Cl+3]([O-])([O-])[O-].[Pd+2].c1ccc(-c2ccccn2)nc1 | > 200 µM | 32.4 µM | –
CC(=O)Nc1ccc2c(C(=O)O)c(C)c(=O)[nH]c2n1 | > 200 µM | 112 µM | –
N=S(c1ccccc1[N+](=O)[O-])c1ccccc1[N+](=O)[O-] | > 200 µM | 0.631 µM and 0.589 µM | –
Cc1ccc(C)c(COCCOCn2cc(Br)c(N)nc2=O)c1 | > 200 µM | > 200 µM | –
O=S(=O)(O)C(O)C(F)(F)C(F)(F)C(F)(F)F (configuration not stated) | > 200 µM | > 200 µM | –
CC1CCN(SSc2nc3ccccc3s2)CC1 | 45.7 µM | 112 µM | –
O=[N+]([O-])c1ccc(NN=C(c2ccccc2)c2ccccc2)c([N+](=O)[O-])c1 | > 52.5 µM | > 52.5 µM | –

SMILES | EC50 | IC50 | outcome
O=C1/C(=C\c2ccc(Cl)cc2)SC2SC=C(c3ccc([N+](=O)[O-])cc3)N12 (configuration not stated) | > 200 µM | 26.3 µM | –
Cc1cc(OP2(=O)Nc3ccccc3-c3ccccc3N2)ccc1Cl | > 70.8 µM | 1.26 µM | –
COC(=O)c1ccccc1/C=C1/Cc2cccc(C)c2C1=O | > 200 µM | > 200 µM | –
CCOC(=O)Nc1cc2c(c(N)n1)N=C(c1ccccc1)CO2 | > 16.6 µM | 0.0933 µM | –
CCCc1c(C(=O)OCC)[nH]c(C(=O)CCC(=O)c2[nH]c(C(=O)OCC)c(CCC)c2C(=O)OCC)c1C(=O)OCC | > 17 µM | > 17 µM | –
C=C(C)[C@@H]1CC[C@]2(C(=O)OC)CC[C@]3(C)[C@H](CC[C@@H]4[C@@]5(C)CC[C@H](O)C(C)(C)[C@@H]5CC[C@]43C)[C@@H]12 | – | – | inactive
S=c1[nH]nc2nc(Nc3ccccc3)nc(Nc3ccccc3)n12 | > 21.4 µM | > 21.4 µM | –
CCC(C)(O)c1cn(-c2cccc(S(=O)(=O)O)c2)nn1 (configuration not stated) | > 417 µM | > 417 µM | –
O=C(/C=C\c1ccc(Cl)c(Cl)c1)c1ccccc1 | > 200 µM | 10 µM | –
CN(C)Cc1cc(/C=C/C(=O)c2ccc(Cl)c(Cl)c2)cc(CN(C)C)c1O | > 151 µM | 6.31 µM | –
O=C(CC1NCCS1)OCc1ccc(Br)cc1 (configuration not stated) | 19.1 µM | 81.3 µM | –
CCOc1ccc(Nc2ccc(N=Nc3c(N)c(C)cc(N=Nc4ccc(-c5ccc(N=Nc6ccc(O)c(C(=O)O)c6)cc5)cc4)c3N)cc2S(=O)(=O)O)cc1 | 10.7 µM | 79.4 µM | –
Clc1ccc(CSc2nnc3c(n2)[nH]c2ccccc23)cc1 | > 200 µM | 42.7 µM | –
COC(=O)C12C3C4C1C1C2C3C41C(=O)N(C(C)C)C(C)C (configuration not stated) | > 871 µM | > 871 µM | –
CC(=O)NC1C(OCc2ccccc2)OC(COC(=O)CCCCCCCCCCNc2ccc([N+](=O)[O-])c3[nH]c4ccccc4c(=O)c23)C(O)C1OC(C)C(=O)NC(C)C(=O)NC(CCC(N)=O)C(=O)OCc1ccccc1 (configuration not stated) | > 166 µM | > 166 µM | –
N#Cc1ncn(Cc2ccccc2)c1N | > 200 µM | > 200 µM | –
O=C(CCCN1CCC2(CC1)C(=O)NCN2c1ccc(F)cc1)c1ccc(F)cc1 | > 200 µM | > 200 µM | –
COc1cc(CNc2nc3ccccc3nc2-c2cccs2)cc(OC)c1OC | > 200 µM | 14.8 µM | –
O=C1NC(=O)C2C3C=CC(C12)C1C2C(=O)NC(=O)C2C31 (configuration not stated) | > 95.5 µM | > 95.5 µM | –
C=C(CCCCCOCOCCOC)[Si](C)(C)C | > 26.3 µM | > 26.3 µM | –
CC(=O)NNc1nc(C)c(C(/C=C/c2ccc(/C=C/C(=N\NC(=O)c3ccncc3)c3sc(NNC(C)=O)nc3C)cc2)=N/NC(=O)c2ccncc2)s1 | > 13.2 µM | > 13.2 µM | –

SMILES | EC50 | IC50 | outcome
CN(C)Cc1cc(N=Nc2ccccc2Cl)cc(CN(C)C)c1O | > 200 µM | 93.3 µM | –
CCCCCCCCCCCCCC/C(=C/OCC[N+](C)(C)C)OC(C)=O (tested in a mixture with another compound) | > 200 µM | 0.355 µM | –
COc1ccc(C(=O)C[P+](c2ccccc2)(c2ccccc2)c2ccccc2)cc1 | > 200 µM | 33.9 µM | –
O=[N+]([O-])c1ccc(-c2ccc(-c3csc(Nc4ccccc4)n3)o2)cc1 | > 37.2 µM | 6.76 µM | –
O=C1NC(=O)C2C1C1C=C3c4ccccc4N(c4ccccc4)C32[C@H]2C(=O)NC(=O)[C@@H]12 (some centres not stated) | > 316 µM | 112 µM | –
CCC(C)C(=O)c1c(O)c(CC2OC2(C)C)c(O)c2c(C(O)CC)cc(=O)oc12 (configuration not stated) | > 200 µM | 5.62 µM | –
CN(C)c1ccc(C(=O)CCCN2CCC(O)(c3ccc(Cl)cc3)CC2)cc1 | > 25.1 µM | > 25.1 µM | –
CN(C)CCSC(=Nc1ccccc1)n1cccc1 | > 26.3 µM | > 26.3 µM | –
O=C1/C(=C/c2ccccc2)CN(C(=O)C(Cl)(Cl)Cl)C/C1=C\c1ccccc1 | – | – | inactive
O=c1[nH]c(=O)n(CCOc2ccc(Cl)cc2)cc1Nc1ccccc1 | > 200 µM | 135 µM | –
COc1cccc(OC)c1NC(=O)C(=O)Nn1c(NNC(=O)c2ccncc2)nc2ccccc2c1=O | > 501 µM | > 501 µM | –
COc1ccc(NCC(=O)Nn2c(C)nc3ccc(S(=O)(=O)Nc4ccc(OC)cc4)cc3c2=O)cc1 | > 100 µM | > 100 µM | –
CC(=O)OC1[C@@H](OC(C)=O)CN(OCc2ccccc2)C[C@H]1OC(C)=O (some centres not stated) | > 200 µM | > 200 µM | –
Cc1cccc(N=N/C(=N\NC(=O)c2cc(Cl)ccc2O)c2ccc(N(CCC#N)CCC#N)cc2C)c1 | > 200 µM | 30.9 µM | –
Cn1c(-c2ccc(/C=N\N3CCN(/N=C/c4ccc(-c5c[n+]6ccccc6n5C)cc4)CC3)cc2)c[n+]2ccccc12 | > 3.02 µM | > 3.02 µM | –
O=C1CNc2cc(N3CCN(c4cccc(C(F)(F)F)c4)CC3)ccc2N1 | > 200 µM | 75.9 µM | –
CC(C)CCCC(C)[C@H]1CC[C@H]2[C@@H]3CC[C@H]4C[C@@H](CCC=C(c5cc(Cl)c(OCc6cccc(B(O)O)c6)c(C(=O)O)c5)c5cc(Cl)c(OCc6cccc(B(O)O)c6)c(C(=O)O)c5)CC[C@]4(C)[C@H]3CC[C@]12C (some centres not stated) | 138 µM | > 200 µM | –
CC(C)(C)NC(=O)c1ccccc1[Se][Se]c1ccccc1C(=O)NC(C)(C)C | 10.2 µM | 13.2 µM | –
CCOC(=O)c1ccc(CS(=O)(=O)c2ccc(C)cc2)c([N+](=O)[O-])c1 | > 100 µM | > 100 µM | –
O=C1c2cccc3cc([N+](=O)[O-])cc(c23)C(=O)N1CCCN(CCO)CCO | – | – | inactive
S=C(SSC(=S)N1CCOCC1)N1CCOCC1 | > 20 µM | 0.724 µM | –

SMILES | EC50 | IC50 | outcome
O=c1[nH]c(=O)n([C@@H]2C[C@H](CO)[C@H](O)C2)cc1/C=C/Br | > 759 µM | 275 µM | –
NNC(=O)C(=O)N/N=C1/CCCC1C(=O)CCC(=O)Nc1ccc(Cl)cc1 (configuration not stated) | > 66.1 µM | > 66.1 µM | –
CCC1(c2ccc(OC)c(OC)c2)CCN2C(=O)C(O)CC21 (configuration not stated) | > 200 µM | > 200 µM | –
COc1ccc(/C=N/Nc2nc(C)c(C)s2)cc1 | > 100 µM | > 100 µM | –
O=c1n(CCO)nc2n1CCCN2 | > 200 µM | > 200 µM | –
COc1cc2c(cc1OC)C(C#N)(Cc1ccccc1)N(C(=O)c1ccccc1)C=C2 (configuration not stated) | – | – | inactive
COc1ccc2c(c1)OC(=O)CC2c1ccc(OC)c(OC)c1 (configuration not stated) | > 200 µM | > 200 µM | –
COc1cc(NC(=O)CC(C)=O)cc2c(C)cc(=O)n(C)c12 | > 200 µM | 117 µM | –
NC(=O)C1C[C@@H](O)CN1C(=O)c1ccc2c(c1)OCO2 (some centres not stated) | > 200 µM | > 200 µM | –
COc1ccc(CC(NC(=O)NSc2ccccc2)C(=O)NC2C(CO)OC(n3cnc4c(N(C)C)ncnc43)C2O)cc1 (configuration not stated) | > 200 µM | 87.1 µM | –
COc1cc(C2OC(N)=C(C#N)C3=C2C(C)CCC3)cc(OC)c1OC (configuration not stated) | – | – | inactive
O=c1[nH]n(-c2ccccc2)c(=O)cc1Cl | > 85.1 µM | > 85.1 µM | –
COc1ccc(-n2c(=O)c3[nH]cnc3n(-c3ccc(OC)cc3)c2=S)cc1 | > 200 µM | > 200 µM | –
COC(=O)C1=C2c3ccccc3NC(=O)N2NC1C(=O)OC (configuration not stated) | > 550 µM | 501 µM | –
COP1(=S)OCC2CCC[C@@H]2O1 (some centres not stated) | – | – | inactive
CCCCOP(=S)(OCCCC)SC1(SC)SSC=C1CC(C)(C)C (configuration not stated) | – | – | inactive
Cn1c(Cl)cn2c3nc4ccccc4nc3c(=O)c(C#N)c12 | – | – | inactive
COc1c(-c2ccc3c(c2)OCO3)oc2cc3c(c(OC)c2c1=O)OCO3 | > 200 µM | > 200 µM | –
CC(C)(C)N/N=C(/Cc1nc2c3c(ccc2[nH]c1=O)C(=O)c1ccccc1C3=O)C(=O)NC1=C(Cl)C(=O)c2ccccc2C1=O | > 11.5 µM | > 11.5 µM | –
S=C1N=C(Cl)C2(NN1)c1ccccc1-c1ccccc12 | > 200 µM | > 200 µM | –
